PMC3975428, “Dimers of G-Protein Coupled Receptors as Versatile Storage and Response Units” (International Journal of Molecular Sciences, 2014)
Values belong to the molecule of their own block, whether it stands above or below them. No end group written: not given here.

B1: human neuropeptide Y Y2 receptor expressed in CHO cells (receptor, UniProt P49146 1-381, looked up)
chain: MGPIGAEADENQTVEEMKVEQYGPQTTPRGELVPDPEPELIDSTKLIEVQVVLILAYCSIILLGVIGNSLVIHVVIKFKSMRTVTNFFIANLAVADLLVNTLCLPFTLTYTLMGEWKMGPVLCHLVPYAQGLAVQVSTITLTVIALDRHRCIVYHLESKISKRISFLIIGLAWGISALLASPLAIFREYSLIEIIPDFEIVACTEKWPGEEKSIYGTVYSLSSLLILYVLPLGIISFSYTRIWSKLKNHVSPGAANDHYHQRRQKTTKMLVCVVVVFAVSWLPLHAFQLAVDIDSQVLDLKEYKLIFTVFHIIAMCSTFANPLLYGWMNSNYRKAFLSAFRCEQRLDAIHSEVSVTFKAKKNLEVRKNSGPNDSFTEATNV
notes: neuropeptide Y receptor type 2 (Y2), human cDNA in pcDNA 3.1+; Assayed in particulates (membranes) of the cells and in digitonin/cholate lysates of them; also called hY2 receptor; CHO-Y2; source: CHO-K1, stably expressed (cDNA in pcDNA 3.1+), postnuclear particulates, solubilised with digitonin and cholate
B2: NPY(22–36) (peptide, UniProt P01303 50-64, looked up)
peptide: SALRHYINLITRQRY
notes: neuropeptide Y, residues 22-36; also called neuropeptide Y(22–36)

Assays:
[1] = tested on: 180 kDa heteropentamer and 90 kDa monomer-Gi α of Y2 receptor; assay: Stability of agonist binding of 180 kDa and 90 kDa Y2 complexes to reagents; type: biochemical, rabbit; settings: for sensitivity of 180 kDa labeled material to K^+: 0.3 M K^+ (as KCl or KI)
From the text: Figure 6. Stability and affinity of agonist binding differs greatly for heteropentamer and monomer forms of the rabbit kidney Y2 receptor. (A) Y2 agonist attached to 180 kDa heteropentamer is recovered completely by 10% polyethyleneglycol (PEG) at 0.3 M K^+ (The data are averages of six gradients, ±1 S.E.).
The stability and affinity of agonist association with CHO-Y2 receptors could also be analyzed at the level of dimers and monomers by extraction and precipitation procedures coupled to competition binding assays (Figure 6).
The pellets were then counted in a scintillation counter.
(§1) Rabbit kidney postmitochondrial particulates, rabbit piriform cortex and hypothalamic crude synaptosomes and CHO cell postnuclear particulates were prepared as described previously. After solubilization of particulates at 10 mM each of digitonin and sodium cholate in buffer A or B, the lysates were spun for 10 min at 1000× g to remove debris, and the supernatants sedimented for periods indicated in figure captions at 218,000× gmax through linear 5%–20% sucrose gradients (10 mL, made in buffer A). The gradients were divided by bottom dripping in 23 fractions of 0.45 mL. The sedimentation positions were calibrated with [^125I]-labeled bovine γ-globulin (158 kDa), human iron-saturated transferrin (75 kDa) and ovalbumin (44 kDa), and with colorized myosin (211 kDa), producing a linear relation of migration to molecular weight (R^2 > 0.99).

Y1 receptor = settings: cited from earlier work
From the text: (§2) The classical view of agonist binding assumes an attachment that is readily terminated by dilution or competition by ligands of higher affinity, such as competitive antagonists. The weak agonist binding for small ligand receptors, such as catecholamine receptors, greatly diminishes analytical options. This has signally contributed to the analytical success of covalent proteinaceous tags. However, many GPCRs with peptidic agonists show agonist attachments that are stable at least at low temperatures, and slow to dissociate even at 37 °C. Such stable (“quasi-irreversible”) binding was found for ...

Y2 receptor = settings: cited from earlier work
From the text: The classical view of agonist binding assumes an attachment that is readily terminated by dilution or competition by ligands of higher affinity, such as competitive antagonists. The weak agonist binding for small ligand receptors, such as catecholamine receptors, greatly diminishes analytical options.

[2] = tested on: 180 kDa heteropentamer (Y2 receptor dimer, G-protein trimer); assay: Nucleotide labeling / conversion of 180 kDa heteropentamer to 90 kDa Gi3α-receptor monomer; type: biochemical; settings: 1–5 mM Mg^2+, micromolar GDP or GγS
Experimental: The receptors were labeled for 30 min at 25 °C in respective particulates (50 μg protein/assay), employing not more than 50 pM [^125I]-labeled agonist peptides (as stated in individual experiments). Higher molar inputs of agonist peptides would produce significant Gα activation within short exposures (e.g., [24, 53]). The basal assay buffer contained 0.2% proteinase-free bovine serum albumin, 20 mM hepes.NaOH (pH 7.4), 1 mM diisopropylfluorophosphate, 0.04% bacitracin, and 10 μg/mL each of proteinase inhibitors aprotinin, bestatin, chymostatin, leupeptin and pepstatin. Depending on experiment design, this was supplemented by 3 mM CaCl2 and 1 mM MgCl2, (buffer A) or by 1 mM Na EDTA, pH 7.4 (buffer B). The nucleotide site labeling at 200 pM [^35S]GγS was for 30 min at 28 °C after pre-activation for 30 min at 28 °C at 3 μM GDP in the basal buffer with 50 μM EDTA, 100 mM NaCl and 4 mM MgCl2, and without CaCl2 (buffer C). All subsequent operations were carried out at 0–5 °C. The assays were terminated by sedimentation for 10 min at 30,000× gmax, followed by surface wash of the pellets.
as §1, with “0.99). […]” for “0.99).”

[3] = biological target: rabbit Y2 receptor, native (rabbit (endogenous in kidney cortex, hypothalamus, piriform cortex)); assay: radioligand binding; competition of PYY(3–36), rabbit kidney particulates after extraction with 8 mM cholate at 0–5 °C (>90% dimeric residue), trypsin up to 3 μg/mL
[4] = biological target: rabbit Y2 receptor, native (rabbit (endogenous in kidney cortex, hypothalamus, piriform cortex)); assay: radioligand binding; competition of PYY(3–36) with [125I]PYY(3–36), rabbit kidney particulates, entire receptor complement
[5] = tested on: Y2 receptor aggregates (rabbit kidney); assay: Y2 receptor aggregates, sedimentation after treatment, rabbit kidney particulates; type: biochemical; settings: 15 min at 24 °C
Experimental: (§3) Figure 5. […] Particulates from rabbit kidney (A) and anterior hypothalamus (B) were incubated with 20 μM GγS or 10 μM U73122 for 15 min at 24 °C, sedimented, resuspended, labeled with 50 pM [^125I]hPYY(3–36) for 15 min at 24 °C, resedimented, lysed at 10 mM each digitonin and cholate and sedimented through a 10%–30% linear sucrose gradient for 6 h at 218,000× g and 5 °C, followed by gradient fractionation and counting. TEXT PRINTED IN THE PICTURE: (A) GγS: Bottom count: 10.8% | (A) U73122: Bottom count: 25.4% | (B) GγS: Bottom count: 8.98 % | (B) U73122: Bottom count: 17.4 %
as §1

[6] = tested on: Y2 receptor aggregates (anterior hypothalamus); assay: Y2 receptor aggregates, sedimentation after treatment, rabbit anterior hypothalamus particulates; type: biochemical; settings: 10 μM, 15 min at 24 °C, 10%–30% gradient 6 h at 218,000× g
Experimental: as §3
as §1, with “The sedimentation positions were calibrated with [^125I]-labeled bovine γ-globulin (158 kDa), human iron-saturated transferrin (75 kDa) and ovalbumin (44 kDa), and with colorized myosin (211 kDa), producing a linear relation of migration to molecular weight (R^2 > 0.99).” left out

[7] = tested on: aggregated Y2 receptor material (rabbit kidney and CHO-Y2 particulates); assay: Release of aggregated Y2 receptor material (bottom of 5%–20% gradients); type: biochemical; settings: 10 μM, preliminary experiment
Experimental: More than 30% of the Y2 binding in rabbit kidney postmitochondrial particulates, and more than 20% in the CHO-Y2 postnuclear particulates sediments to the bottom of 5%–20% sucrose gradients over 18 h at 218,000× gmax, corresponding to weight in excess of 1000 kDa. A large part of this material sediments at 30,000× gmax over 10 min, and could be considered as aggregated. […] This preliminary experiment points to potential of such procedures in quantitation of effector-associated receptors at the level of dimers and monomers. There also is a promise of gaining more insight on the size and significance of receptor oligomers incorporating more than two receptor monomers.
as §1

[8] = tested on: human calcitonin receptor; settings: cited from earlier work
From the text: as §2

neuromedin U receptors = settings: cited from earlier work
From the text: as §2

Y4 receptor = settings: cited from earlier work
From the text: as §2

[9] = biological target: rabbit Y2 receptor, native (rabbit (endogenous in kidney cortex, hypothalamus, piriform cortex)); assay: radioligand binding; aliquots of gradient fractions of labeled rabbit kidney particulates precipitated with 10% polyethyleneglycol-8000 at 300 mM KCl or KI and 50 μg/mL bovine γ-globulin, 10 min at 0–4 °C
[10] = tested on: rabbit kidney Y2 receptor; assay: PYY(3–36) binding to rabbit kidney Y2 receptor (heteropentamer and monomer forms)
Experimental: The receptors were labeled for 30 min at 25 °C in respective particulates (50 μg protein/assay), employing not more than 50 pM [^125I]-labeled agonist peptides (as stated in individual experiments). […] The basal assay buffer contained 0.2% proteinase-free bovine serum albumin, 20 mM hepes.NaOH (pH 7.4), 1 mM diisopropylfluorophosphate, 0.04% bacitracin, and 10 μg/mL each of proteinase inhibitors aprotinin, bestatin, chymostatin, leupeptin and pepstatin. Depending on experiment design, this was supplemented by 3 mM CaCl2 and 1 mM MgCl2, (buffer A) or by 1 mM Na EDTA, pH 7.4 (buffer B). The nucleotide site labeling at 200 pM [^35S]GγS was for 30 min at 28 °C after pre-activation for 30 min at 28 °C at 3 μM GDP in the basal buffer with 50 μM EDTA, 100 mM NaCl and 4 mM MgCl2, and without CaCl2 (buffer C). All subsequent operations were carried out at 0–5 °C. The assays were terminated by sedimentation for 10 min at 30,000× gmax, followed by surface wash of the pellets.

endothelin-1 receptor = settings: cited from earlier work
From the text: as §2

[11] = biological target: the molecule itself; assay: sucrose density gradient centrifugation; CHO-Y2 particulates preincubated in assay buffer at 27 °C (1 h or 3 h) or in ice (3 h), labeled 20 min at 27 °C with [125I]PYY(3–36), solubilised at 10 mM each digitonin and cholate, 5%–20% sucrose gradients, 18 h at 5 °C, 218,000 x gmax
[12] = biological target: B1; assay: radioligand binding; competition against [125I]PYY(3–36) at the hY2 receptor; conditions not given; settings: one partner purified

- sensitivity of 180 kDa labeled material to K^+ [1]: not sensitive
Molecule: [I-].[K+] [KI]

Molecule: neuropeptide Y [NPY]
- stability of agonist binding (Y1 receptor): quasi-irreversible
- stability of agonist binding (Y2 receptor): quasi-irreversible

Molecule: Nc1nc2c(ncn2[C@@H]2O[C@H](COP(=O)(O)OP(=O)(O)O)[C@@H](O)[C@H]2O)c(=O)[nH]1 [GDP]
- conversion of 180 kDa heteropentamer [2]: does convert to immunoprecipitable 90 kDa Gi3α-receptor monomer

- IC50 [3]: 0.01 nM
- IC50 [4]: 0.2 to 0.5 nM
Molecule: human peptide YY(3–36) (from UniProt P10082 31-64)

- effect on Y2 agonist bound to 90 kDa monomer-Gi α ([1]; 0.3 M KCl): detached
- sensitivity of 180 kDa labeled material to K^+ [1]: not sensitive
Molecule: [Cl-].[K+] [KCl]

- effect on Y2 agonist bound to 90 kDa monomer-Gi α ([1]; 8 mM cholate at 0–5 °C): detached
- effect of sodium cholate on activated monomers ([1]; rabbit kidney particulates): removes activated monomers
Molecule: C[C@H](CCC(=O)[O-])[C@H]1CC[C@H]2[C@@H]3[C@H](O)C[C@@H]4C[C@H](O)CC[C@]4(C)[C@H]3C[C@H](O)[C@]12C.[Na+] [sodium cholate]

- main form yielded from Y2 receptor aggregates ([5]; particulates from rabbit tissues (kidney and anterior hypothalamus), GγS 20 μM or U73122 10 μM): largely the heteropentamer
- Bottom count ([5]; rabbit kidney, 10 μM, 10%–30% gradient 6 h at 218,000× g): 25.4%
- Bottom count [6]: 17.4%
- part of aggregated material released [7]: About a third
Molecule: COc1ccc2c(c1)CC[C@@H]1[C@@H]2CC[C@]2(C)[C@@H](NCCCCCCN3C(=O)C=CC3=O)CC[C@@H]12 [U73122]

Molecule: salmon calcitonin
- stability of agonist binding [8]: quasi-irreversible

Molecule: neuromedin U (FRVDEEFQSPFASQSRGYFLFRPRN; ends and bridges not checked; UniProt P48645 142-166, looked up) [agonist at its receptors]
- stability of agonist binding (neuromedin U receptors): quasi-irreversible

Molecule: pancreatic polypeptide
- stability of agonist binding (Y4 receptor): quasi-irreversible

- percent of the 180 kDa labeled material precipitated at 10% PEG [9]: > 80%
Molecule: [125I]human peptide YY(3–36) (from UniProt P10082 31-64)

- Bmax for the dimeric Y2 in the cholate residue ([10]; above 0.3 μg trypsin): increases significantly
- effect on affinity of PYY(3–36) binding to dimeric residue ([10]; trypsin at up to 3 μg/mL, cholate residue): unaffected
- stability of heteropentamers to trypsin ([1]; rabbit kidney particulates): considerable stability
Molecule: trypsin

Molecule: endothelin
- stability of agonist binding (endothelin-1 receptor): quasi-irreversible

Molecule: B1
- stoichiometry N [11]: 2

Molecule: B2
- Kd [12]: 6.2 ± 1.2 nM
